Source: ChEMBL document CHEMBL3886459, “Benzylamine derivatives as inhibitors of plasma kallikrein” (2016)

Experiments:
Kallikrein-1 = Kallikrein-1 (Homo sapiens, UniProt P06870); experiment: (§1) In Vitro Inhibition Assay: KLK1 inhibitory activity in vitro was determined using standard published methods (see e.g. Johansen et al., Int. J. Tiss. Reac. 1986, 8, 185; Shori et al., Biochem. Pharmacol., 1992, 43, 1209; Stürzebecher et al., Biol. Chem. Hoppe-Seyler, 1992, 373, 1025). Human KLK1 (Callbiochem) was incubated at 37° C. with the fluorogenic substrate H-DVal-Leu-Arg-AFC and various concentrations of the test compound. Residual enzyme activity (initial rate of reaction) was determined by measuring the change in […] at 410 nm and the IC50 value for the test compound was determined.
Coagulation factor XII = target: T1, Coagulation factor XII (Homo sapiens, UniProt P00748); experiment: Enzyme Assay: Human serine protease enzymes plasmin, thrombin, trypsin, Factor Xa and Factor XIIa were assayed for enzymatic activity using an appropriate fluorogenic substrate. Protease activity was measured by monitoring the accumulation of liberated fluorescence from the substrate over 5 minutes. The linear rate of fluorescence increase per minute was expressed as percentage (%) activity. The …
T1 sequence (P00748 whole entry): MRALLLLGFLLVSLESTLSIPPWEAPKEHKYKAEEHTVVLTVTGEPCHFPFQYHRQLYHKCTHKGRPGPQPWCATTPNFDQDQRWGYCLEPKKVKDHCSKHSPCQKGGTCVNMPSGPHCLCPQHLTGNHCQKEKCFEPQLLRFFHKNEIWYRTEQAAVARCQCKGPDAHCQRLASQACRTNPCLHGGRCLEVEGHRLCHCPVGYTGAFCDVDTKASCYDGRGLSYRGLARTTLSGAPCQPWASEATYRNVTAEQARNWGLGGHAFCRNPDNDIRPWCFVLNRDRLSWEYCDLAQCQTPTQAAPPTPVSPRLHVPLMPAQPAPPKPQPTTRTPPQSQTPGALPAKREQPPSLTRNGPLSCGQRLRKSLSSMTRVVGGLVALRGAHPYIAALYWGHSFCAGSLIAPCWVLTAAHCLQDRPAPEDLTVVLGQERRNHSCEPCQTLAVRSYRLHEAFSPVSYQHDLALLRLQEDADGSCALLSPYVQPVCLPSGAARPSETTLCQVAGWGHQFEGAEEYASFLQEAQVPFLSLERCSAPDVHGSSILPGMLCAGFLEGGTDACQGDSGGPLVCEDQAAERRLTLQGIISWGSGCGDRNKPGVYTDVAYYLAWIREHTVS
Description: Enzyme Assay: Human serine protease enzymes plasmin, thrombin, trypsin, Factor Xa and Factor XIIa were assayed for enzymatic activity using an appropriate fluorogenic substrate. Protease activity was measured by monitoring the accumulation of liberated fluorescence from the substrate over 5 minutes. The linear rate of fluorescence increase per minute was expressed as percentage (%) activity. The Km for the cleavage of each substrate was determined by standard transformation of the Michaelis-Menten equation.

Plasma kallikrein = Plasma kallikrein (Homo sapiens, UniProt P03952); experiment: as §1, with “Plasma kallikrein” for “KLK1”, “Stiirzebecher” for “Stürzebecher”, “plasma kallikrein (Protogen)” for “KLK1 (Callbiochem)”, “H-DPro-Phe-Arg-AFC” for “H-DVal-Leu-Arg-AFC”; type: cell-free
Chain of Plasma kallikrein (P03952 20-390 limits assumed): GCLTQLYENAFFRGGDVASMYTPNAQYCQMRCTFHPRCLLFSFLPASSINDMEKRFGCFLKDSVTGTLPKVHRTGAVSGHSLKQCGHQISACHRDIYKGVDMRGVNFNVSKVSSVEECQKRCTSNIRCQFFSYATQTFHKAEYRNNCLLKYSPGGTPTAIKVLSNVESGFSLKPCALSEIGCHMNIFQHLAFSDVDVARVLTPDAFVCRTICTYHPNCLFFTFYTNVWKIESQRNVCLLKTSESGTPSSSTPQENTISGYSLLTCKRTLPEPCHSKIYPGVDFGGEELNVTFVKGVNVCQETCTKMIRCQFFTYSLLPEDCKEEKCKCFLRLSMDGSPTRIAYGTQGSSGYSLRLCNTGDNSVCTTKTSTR
Chain of Plasma kallikrein (P03952 391-638 limits assumed): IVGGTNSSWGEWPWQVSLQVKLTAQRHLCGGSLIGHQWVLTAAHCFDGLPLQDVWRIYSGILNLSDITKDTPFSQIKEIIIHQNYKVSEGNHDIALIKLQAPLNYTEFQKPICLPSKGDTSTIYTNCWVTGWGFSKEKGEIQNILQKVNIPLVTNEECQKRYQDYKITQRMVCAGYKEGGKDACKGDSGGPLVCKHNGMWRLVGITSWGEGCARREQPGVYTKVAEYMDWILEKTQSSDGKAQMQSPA

Chain of Kallikrein-1 (P06870 whole entry): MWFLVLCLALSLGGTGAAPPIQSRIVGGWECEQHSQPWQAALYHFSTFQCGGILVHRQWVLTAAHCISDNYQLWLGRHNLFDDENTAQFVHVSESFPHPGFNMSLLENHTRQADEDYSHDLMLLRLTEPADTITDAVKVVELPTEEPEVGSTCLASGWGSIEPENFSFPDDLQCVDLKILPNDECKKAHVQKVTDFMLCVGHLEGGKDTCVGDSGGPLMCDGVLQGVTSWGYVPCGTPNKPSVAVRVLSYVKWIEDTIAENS

Row | Structure (SMILES) | IC50 (Kallikrein-1) [nM] | IC50 (Coagulation factor XII) [nM] | IC50 (Plasma kallikrein) [nM]
1 | CCOc1ccc(C[C@@H](NC(=O)c2ccccc2)C(=O)N[C@@H](Cc2c[nH]c3ccccc23)C(=O)NCc2ccc(CN)cc2)cc1 | > 10000 | – | 28
2 | NCc1ccc(CNC(=O)[C@H](Cc2ccccc2)NC(=O)[C@H](N)CC2CCCCC2)cc1 | > 1000 | – | 740
3 | CCOc1ccc(C[C@@H](NC(=O)c2ccc(OC)cc2)C(=O)N[C@@H](Cc2ccccc2)C(=O)NCc2ccc(CN)cc2)cc1 | > 10000 | > 10000 | 46

Next, values leading:

Row | IC50 (Kallikrein-1) [nM] | IC50 (Coagulation factor XII) [nM] | IC50 (Plasma kallikrein) [nM] | Structure (SMILES)
4 | > 10000 | > 10000 | 32 | CCOc1ccc(C[C@@H](NC(=O)c2ccc(C)cc2)C(=O)N[C@@H](Cc2ccccc2)C(=O)NCc2ccc(CN)cc2)cc1
5 | 9500 | – | 40 | CCCOc1ccc(C[C@@H](NC(=O)c2ccccc2)C(=O)N[C@@H](Cc2ccccc2)C(=O)NCc2ccc(CN)cc2)cc1
6 | > 10000 | – | 1210 | NCc1ccc(CNC(=O)[C@H](Cc2ccccc2)NC(=O)[C@@H](Cc2ccc(OCc3ccccc3)cc2)NC(=O)c2ccccc2)cc1
